The series deals with CD3+ T-cells. Kind of series: viability of healthy T-cells, propidium iodide exclusion. The class given is cell-based. How it is done: Data are the mean ± stdev of 3 biological replicates. […] Data are the mean ± stdev of 3 biological replicates.
Propidium iodide exclusion was used to assess cell death by flow cytometry. After treatment, the cells were washed once with PBS and stained with 1.4 μg/mL propidium iodide (PI) for 5 min before quantification of PI negative and positive cells using a CytoFLEX flow cytometer (California, United States). An example of the gating strategy to assess PI staining can be found in Fig. S8c. […]
The propidium iodide exclusion assay was used to assess vi-ability of ungated PBMCs treated with AVX420 at the indicated doses for 24 hours .
Data are the mean ±stdev from 8 biological replicates (1-16 µM) and 5 biological rep- […]
iodide exclusion in CD3+ lymphocytes (T-cells). Cells appearing in the bottom right quadrant are PI-negative (live) T-cells while cells in the top right quadrant are PI-posi- […]
(1 picture or pasted object on this page, not shown here)

Setting [1] is: Figure 6c, 32 µM, listed as AVX420.

Where “and” joins values, the source holds several entries; their conditions need not be identical. Equal values may be shown once.

As for `CCCCCCCOc1ccc(OCC(=O)c2nc(C(=O)OC)cs2)cc1` [GK420], the “PI Negative” value (Figure 6c, 2 µM, listed as AVX420) is 96 and 98 and 95 and 91 and 89 and 97; the “PI Negative” value (Figure 6c, 8 µM, listed as AVX420) is 96 and 98 and 94 and 90 and 87 and 95 and 93; the “PI Negative” value (Figure 6c, 16 µM, listed as AVX420) was 96 and 98 and 94 and 90 and 84 and 91; the “PI Negative” value under setting [1] was 92 and 94 and 89 and 91 and 90. In addition, the “PI Positive” value under setting [1] is 6 and 11 and 9 and 10 and 8. In addition, under “up to a maximum dose tested of 32 µM”, the “effect on healthy CD3+ T-cells” value is “no effect”.
